The source of these data is patent US20220257592A1, “METHODS OF TREATING CANCER” (HOFFMANN-LA ROCHE INC., priority 2019, published 2022).

This data set is described as follows: Circulating exposure at steady-state in patients. In kind it is in vivo, human.

For the compound `O=C(Nc1n[nH]c2ccc(Cc3cc(F)cc(F)c3)cc12)c1ccc(N2CCNCC2)cc1NC1CCOCC1` [M5], the “circulating M5 exposure as share of corresponding entrectinib exposure” value is 40%.
